Source: patent publication US20170348253A1, “Treatment of Drug-Resistant Microbial Infections” (NovaBiotics Limited, priority 2016, published 2017)

What was measured:
[1] = test system: P. aeruginosa strain LES431; assay: Neutropenic mouse thigh model of infection; format: in vivo, Pseudomonas aeruginosa; details: for Log10 reduction in cfu/g: neutropoenic mice, thigh, 24 h post-treatment, compared with vehicle control
Description: Mouse thigh infection model experiments were conducted at Eurofins Panlabs, (Taipei, Taiwan). Mice were rendered neutropoenic with cyclophosphamide prior to infection. They were separated into groups of 5 animals per treatment. […] Animals were sacrificed 25 h post infection (24 h post-treatment) and thigh weights and cfu/g of tissue were calculated and recorded.

Staphylococcus aureus = assay: Aberdeen clinical study: sputum microbiology, resistance profile of predominant pathogen; format: in vivo; set-up: key: MRSA = Methicillin-resistant Staphylococcus aureus; MSSA = Methicillin-sensitive Staphylococcus aureus; PR = pan-resistant; S = sensitive; Cip^R = ciprofloxacin-resistant; Cip^S = ciprofloxacin sensitive; details: Patient 1, stable CF lung disease, oral 450 mg once daily increased weekly to four times daily; pre trial MRSA
Description: (§1) Patients≧18 years of age, weighing>50 kg with stable CF lung disease were commenced on oral cysteamine bitartrate (Cystagon®) 450 mg once daily, increased weekly to 450 mg four times daily. Serial plasma cysteamine concentrations were measured for 24 h after the first dose. Participants were reviewed every week for 6 weeks, except at 4 weeks. Plasma cysteamine concentrations were measured 8 h after dosing when reviewed at 1, 2 and 3 weeks and 6 h after dosing when reviewed at 5 weeks. Sputum cysteamine concentration was also quantified at the 5-week assessment. Routine monitoring of clinical microbiology and reporting of speciation and resistance profile of major colonising microorganisms from patients continued as normal, prior to, during where necessary and after the trial by the hospital microbiology laboratory.

P. aeruginosa = assay: as above; format: in vivo, Pseudomonas aeruginosa; details: oral 450 mg once daily increased weekly to four times daily
Description: as §1

Q: For `NCCS` [Cysteamine, cysteamine], which “Effect of cysteamine on the activity of ciprofloxacin” value ([1]; neutropenic mouse thigh model, cysteamine 1.25 mg/kg with ciprofloxacin 15 mg/kg) is on record?
A: chemopotentiates the activity of ciprofloxacin

Q: And the “Log10 reduction in cfu/g” value ([1]; 1.25 mg/kg i.v.)?
A: 0.74 log10 cfu/g

Q: What does the source list for `NCCS.O=C(O)C(O)C(O)C(=O)O` (stereo not shown) [cysteamine bitartrate]?
A: Post trial microbiology (predominant pathogen in sputum) (Staphylococcus aureus): MSSA; Post trial microbiology (predominant pathogen in sputum) (P. aeruginosa; Patient 2, stable CF lung disease, pre trial PR P. aeruginosa): S P. aeruginosa; Post trial microbiology (predominant pathogen in sputum) (P. aeruginosa; Patient 3, stable CF lung disease, pre trial Cip^R P. aeruginosa): Cip^S P. aeruginosa

Q: Which “Log10 reduction in cfu/g” value ([1]; 5 mg/kg SC) does the source give for Colistin here?
A: 5.02 log10 cfu/g

Q: `O=C(O)c1cn(C2CC2)c2cc(N3CCNCC3)c(F)cc2c1=O` [Ciprofloxacin] was tested. Which “Log10 reduction in cfu/g” value ([1]; 15 mg/kg i.v.) did it give?
A: 2.02 log10 cfu/g
